# Experimental data from US11524966B1 (Valo Early Discovery, Inc., priority 2017, dated 2022).
# Target: T1, USP25 (USP25-His6, Boston Biochem E-546) (Homo sapiens, UniProt Q9UHP3)
# T1 construct: His6; purchased Boston Biochem E-546
# T1 sequence (Q9UHP3 1-1055): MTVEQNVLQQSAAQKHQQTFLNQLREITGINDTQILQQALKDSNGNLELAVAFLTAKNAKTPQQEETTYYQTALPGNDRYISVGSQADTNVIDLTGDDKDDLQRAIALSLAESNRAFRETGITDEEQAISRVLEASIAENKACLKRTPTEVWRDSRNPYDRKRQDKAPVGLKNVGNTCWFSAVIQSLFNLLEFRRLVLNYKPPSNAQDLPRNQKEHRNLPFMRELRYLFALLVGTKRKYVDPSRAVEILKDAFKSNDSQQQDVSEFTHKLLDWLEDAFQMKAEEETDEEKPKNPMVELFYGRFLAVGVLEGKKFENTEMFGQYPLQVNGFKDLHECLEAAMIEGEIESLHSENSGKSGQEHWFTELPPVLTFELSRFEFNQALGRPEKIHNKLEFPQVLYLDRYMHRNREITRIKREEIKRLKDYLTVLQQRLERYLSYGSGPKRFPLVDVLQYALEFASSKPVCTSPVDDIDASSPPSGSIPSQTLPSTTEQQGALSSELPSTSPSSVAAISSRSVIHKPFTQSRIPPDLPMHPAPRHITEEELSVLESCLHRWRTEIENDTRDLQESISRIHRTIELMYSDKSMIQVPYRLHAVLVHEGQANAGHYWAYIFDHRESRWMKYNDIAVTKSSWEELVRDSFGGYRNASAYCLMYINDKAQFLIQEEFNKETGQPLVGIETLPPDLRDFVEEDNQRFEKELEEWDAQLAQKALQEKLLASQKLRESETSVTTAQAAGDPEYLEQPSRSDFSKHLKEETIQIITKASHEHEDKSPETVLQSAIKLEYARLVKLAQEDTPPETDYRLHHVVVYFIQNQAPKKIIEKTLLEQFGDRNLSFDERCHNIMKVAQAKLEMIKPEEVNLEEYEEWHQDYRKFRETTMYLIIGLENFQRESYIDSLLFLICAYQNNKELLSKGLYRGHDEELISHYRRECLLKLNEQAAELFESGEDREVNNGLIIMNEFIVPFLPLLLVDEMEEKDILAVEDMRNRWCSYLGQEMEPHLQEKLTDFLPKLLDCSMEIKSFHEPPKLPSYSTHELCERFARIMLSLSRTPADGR
# Experiment: Ubiquitin-Rhodamine 110 Assay for USP25 Activity, Example A-2
# Type: biochemical
# Conditions: Ubiquitin-Rhodamine 110 assay, Example A-2; read-out: USP25 A-2 IC50 range
# Outline: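 Steps: compound dilutions (top 25 μM, 3-fold, 10 points) were preincubated 30 min with 75 pM USP25-His6; 25 nM Ub-Rh110 substrate was added under initial-velocity conditions; after 45 min at room temperature, 10 mM citric acid stopped the reaction before fluorescence reading.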
row,Structure (SMILES),IC50
1,"Cc1ccc2c(N)c(C(=O)N[C@H]3COc4cc(N5C[C@@H](N)[C@@H](F)C5)ccc4C3)sc2n1 (single isomer, unassigned) [Example 3-5]",200 to 2000 nM
2,"Cc1ccc2c(N)c(C(=O)N[C@H]3COc4cc(N5C[C@@H](F)[C@@H](N)C5)ccc4C3)sc2n1 (single isomer, unassigned) [Example 3-6]",200 to 2000 nM
3,"COC[C@@H]1CN(c2nc3c(cc2F)C[C@H](NC(=O)c2sc4nc(C)ccc4c2N)CC3)C[C@@H]1N (single isomer, unassigned) [Example 302]",200 to 2000 nM
4,"COC[C@H]1CN(c2nc3c(cc2F)C[C@H](NC(=O)c2sc4nc(C)ccc4c2N)CC3)C[C@H]1N (single isomer, unassigned) [Example 303]",> 2000 nM
5,"CO[C@H]1CCN(c2ccc3c(n2)CC[C@H](NC(=O)c2sc4nc(C)ccc4c2N)C3)C[C@@H]1N (single isomer, unassigned) [Example 315]",200 to 2000 nM
6,"CO[C@@H]1CCN(c2ccc3c(n2)CC[C@H](NC(=O)c2sc4nc(C)ccc4c2N)C3)C[C@H]1N (single isomer, unassigned) [Example 316]",> 2000 nM
7,"CCOC1CN(c2ccc3c(c2)OC[C@H](NC(=O)c2sc4nc(C)cc(C)c4c2N)C3)C[C@@H]1N (stereo in doubt) [Example 323, 3-amino-N-[(3R)-7-[(3S,4R)-3-amino-4-ethoxypyrrolidin-1-yl]-3,4-dihydro-2H-1-benzopyran-3-yl]-4,6-dimethylthieno[2,3-b]pyridine-2-carboxamide]",50 to 200 nM
8,"COC[C@@]1(C)CN(c2ccc3c(n2)CC[C@H](NC(=O)c2sc4nc(C)ccc4c2N)C3)CC1N (stereo in doubt) [Example 343, 3-amino-N-[(6S)-2-[(3S,4S)-4-amino-3-(methoxymethyl)-3-methylpyrrolidin-1-yl]-5,6,7,8-tetrahydroquinolin-6-yl]-6-methylthieno[2,3-b]pyridine-2-carboxamide]",200 to 2000 nM
9,"COC[C@H]1C[C@H](N)CN1c1ccc2c(c1)OC[C@H](NC(=O)c1sc3nc(C)ccc3c1N)C2 [Example 261, 3-amino-N-[(3R)-7-[(2R,4S)-4-amino-2-(methoxymethyl)pyrrolidin-1-yl]-3,4-dihydro-2H-1-benzopyran-3-yl]-6-methylthieno[2,3-b]pyridine-2-carboxamide]",50 to 200 nM
10,"COC[C@H]1C[C@@H](N)CN1c1ccc2c(c1)OC[C@H](NC(=O)c1sc3nc(C)ccc3c1N)C2 [Example 262, 3-amino-N-[(3R)-7-[(2R,4R)-4-amino-2-(methoxymethyl)pyrrolidin-1-yl]-3,4-dihydro-2H-1-benzopyran-3-yl]-6-methylthieno[2,3-b]pyridine-2-carboxamide]",200 to 2000 nM
11,"COC[C@@H]1C[C@H](N)CN1c1ccc2c(c1)OC[C@H](NC(=O)c1sc3nc(C)ccc3c1N)C2 [Example 263, 3-amino-N-[(3R)-7-[(2S,4S)-4-amino-2-(methoxymethyl)pyrrolidin-1-yl]-3,4-dihydro-2H-1-benzopyran-3-yl]-6-methylthieno[2,3-b]pyridine-2-carboxamide]",50 to 200 nM
12,"N#Cc1c(N2CC3CCC(C2)N3)cc2c(c1F)C[C@@H](NC(=O)c1cnc3c(c1)[C@@H]1C[C@@H]1CN3)CO2 [Example 264, (6aS,7aR)-N-[(3R)-6-cyano-7-{3,8-diazabicyclo[3.2.1]octan-3-yl}-5-fluoro-3,4-dihydro-2H-1-benzopyran-3-yl]-5H,6H,6aH,7H,7aH-cyclopropa[c]1,8-naphthyridine-2-carboxamide]",1 to 50 nM
13,"N#Cc1c(N2CC3CCC(C2)N3)cc2c(c1F)C[C@@H](NC(=O)c1cnc3c(c1)[C@H]1C[C@H]1CN3)CO2 [Example 265, (6aR,7aS)-N-[(3R)-6-cyano-7-{3,8-diazabicyclo[3.2.1]octan-3-yl}-5-fluoro-3,4-dihydro-2H-1-benzopyran-3-yl]-5H,6H,6aH,7H,7aH-cyclopropa[c]1,8-naphthyridine-2-carboxamide]",200 to 2000 nM
14,"CO[C@H]1CN(c2ccc3c(n2)CC[C@H](NC(=O)c2sc4nc(C)cnc4c2N)C3)C[C@@H]1NC(C)=O [Example 266, 7-amino-N-[(6S)-2-[(3S,4S)-3-acetamido-4-methoxypyrrolidin-1-yl]-5,6,7,8-tetrahydroquinolin-6-yl]-3-methylthieno[2,3-b]pyrazine-6-carboxamide]",> 2000 nM
15,"CCO[C@@H]1CN(c2ccc3c(c2)CC[C@H](NC(=O)c2sc4nc(C)ccc4c2N)C3)C[C@@H]1N [Example 267, 3-amino-N-[(2S)-6-[(3S,4R)-3-amino-4-ethoxypyrrolidin-1-yl]-1,2,3,4-tetrahydronaphthalen-2-yl]-6-methylthieno[2,3-b]pyridine-2-carboxamide]",200 to 2000 nM
16,"CCO[C@H]1CN(c2ccc3c(c2)CC[C@H](NC(=O)c2sc4nc(C)ccc4c2N)C3)C[C@H]1N [Example 268, 3-amino-N-[(2S)-6-[(3R,4S)-3-amino-4-ethoxypyrrolidin-1-yl]-1,2,3,4-tetrahydronaphthalen-2-yl]-6-methylthieno[2,3-b]pyridine-2-carboxamide]",> 2000 nM
17,"CO[C@@H]1CN(c2ccc3c(n2)CC[C@H](NC(=O)c2sc4nc(C)ccc4c2N)C3)C[C@@H]1N [Example 269, 3-amino-N-[(6S)-2-[(3S,4R)-3-amino-4-methoxypyrrolidin-1-yl]-5,6,7,8-tetrahydroquinolin-6-yl]-6-methylthieno[2,3-b]pyridine-2-carboxamide]",> 2000 nM
18,"CO[C@H]1CN(c2ccc3c(n2)CC[C@H](NC(=O)c2sc4nc(C)ccc4c2N)C3)C[C@H]1N [Example 270, 3-amino-N-[(6S)-2-[(3R,4S)-3-amino-4-methoxypyrrolidin-1-yl]-5,6,7,8-tetrahydroquinolin-6-yl]-6-methylthieno[2,3-b]pyridine-2-carboxamide]",> 2000 nM
19,"COC[C@@H]1CN(c2ccc3c(c2)OC[C@H](NC(=O)c2sc4nc(C)cc(C)c4c2N)C3)C[C@@H]1N [Example 275, 3-amino-N-[(3R)-7-[(3R,4R)-3-amino-4-(methoxymethyl)pyrrolidin-1-yl]-3,4-dihydro-2H-1-benzopyran-3-yl]-4,6-dimethylthieno[2,3-b]pyridine-2-carboxamide]",200 to 2000 nM
20,"COC[C@H]1CN(c2ccc3c(c2)OC[C@H](NC(=O)c2sc4nc(C)cc(C)c4c2N)C3)C[C@H]1N [Example 276, 3-amino-N-[(3R)-7-[(3S,4S)-3-amino-4-(methoxymethyl)pyrrolidin-1-yl]-3,4-dihydro-2H-1-benzopyran-3-yl]-4,6-dimethylthieno[2,3-b]pyridine-2-carboxamide]",50 to 200 nM
21,"COC[C@@H]1CN(c2cc(F)c3c(c2F)OC[C@H](NC(=O)c2sc4nc(C)cc(C)c4c2N)C3)C[C@@H]1N [Example 277, 3-amino-N-[(3R)-7-[(3R,4R)-3-amino-4-(methoxymethyl)pyrrolidin-1-yl]-5,8-difluoro-3,4-dihydro-2H-1-benzopyran-3-yl]-4,6-dimethylthieno[2,3-b]pyridine-2-carboxamide]",200 to 2000 nM
22,"COC[C@H]1CN(c2cc(F)c3c(c2F)OC[C@H](NC(=O)c2sc4nc(C)cc(C)c4c2N)C3)C[C@H]1N [Example 278, 3-amino-N-[(3R)-7-[(3S,4S)-3-amino-4-(methoxymethyl)pyrrolidin-1-yl]-5,8-difluoro-3,4-dihydro-2H-1-benzopyran-3-yl]-4,6-dimethylthieno[2,3-b]pyridine-2-carboxamide]",50 to 200 nM
23,"CO[C@@]1(C)CN(c2ccc3c(n2)CC[C@H](NC(=O)c2sc4nc(C)cnc4c2N)C3)C[C@@H]1N [Example 279, 7-amino-N-[(6S)-2-[(3S,4S)-4-amino-3-methoxy-3-methylpyrrolidin-1-yl]-5,6,7,8-tetrahydroquinolin-6-yl]-3-methylthieno[2,3-b]pyrazine-6-carboxamide]",> 2000 nM
24,"CO[C@]1(C)CN(c2ccc3c(n2)CC[C@H](NC(=O)c2sc4nc(C)cnc4c2N)C3)C[C@H]1N [Example 280, 7-amino-N-[(6S)-2-[(3R,4R)-4-amino-3-methoxy-3-methylpyrrolidin-1-yl]-5,6,7,8-tetrahydroquinolin-6-yl]-3-methylthieno[2,3-b]pyrazine-6-carboxamide]",> 2000 nM
25,"CO[C@@]1(C)CN(c2ccc3c(c2)OC[C@H](NC(=O)c2sc4nc(C)ccc4c2N)C3)C[C@@H]1N [Example 281, 3-amino-N-[(3R)-7-[(3S,4S)-4-amino-3-methoxy-3-methylpyrrolidin-1-yl]-3,4-dihydro-2H-1-benzopyran-3-yl]-6-methylthieno[2,3-b]pyridine-2-carboxamide]",200 to 2000 nM
